# Reference: patent US7807844B2, “TGF-β gene expression inhibitor” (Nihon University, priority 2003, dated 2010)
# Experiments:
# hTGF-β1 promoter [1] = experiment: Transient transfection and luciferase assay in hVSMC; assay type: cell-based, human; conditions: for expression of luciferase driven by hTGF-β1 promoter: 10^−9 M, 24 hr incubation
# Experimental: One microgram of the luciferase gene which was controlled by the hTGF-β1 promoter was transfected for 6 hr in sterilized medium using lipofectin reagent. After 24 hr of the transfection, cells were incubated for 24 hr in a medium containing 0.5% CS in the presence (or absence) of the polyamide or the mismatched polyamide, and the luciferase activity was assayed in these cells extracts using a dual luciferase/reporter gene assay system. One hundred μL of luciferase substrate was mixed with 20 μL cell extracts. After the mixing, the reaction mixture was placed in a luminometer (Turner Designs-Bioblock, Illkirch, France), and the light emitted for ten seconds at room temperature was measured. PMA was used as a positive control. Comparison with the control *P<0.05.
# (§1) The 2.2 kb fragment containing the hTGF-β1 promoter derived from plasmid phTBG 101 (non-patent document 10) was isolated and inserted to pGL3 basic plasmid (Promega, Madison, Wis.) at the upstream of the coding region of luciferase reporter gene. The accurate structure of the constructed plasmid was identified by spectral analysis with restriction enzymes analysis and sequencing.
# hVSMC cells were cultured at a density of […] in 24 well plates in the presence of 10% CS. After 24 hr, the reporter gene that was driven by the hTGF-β1 promoter was transfected using Lipofectin reagent (GibcoBRL) in the presence of 1 μg DNA in the sterilized medium, according to the method indicated by the manufacturer. Cells were incubated with the DNA liposome complex for 6 hours, and then the medium was exchanged to 1 ml of fresh complete medium. […] After brief centrifugation, luciferase activity in the cell extracts was measured using a dual-luciferase reporter gene assay system (Promega, Madison, Wis.). […] After mixing, the reaction mixture was placed in a luminometer (Turner Designs-Bioblock, Illkirch, France), and the light emitted for ten seconds at room temperature was measured.
# hTGF-β1 mRNA = experiment: RT-PCR assay of hTGF-β1 mRNA in hVSMC; assay type: cell-based, human; conditions: for expression of hTGF-β1 mRNA: 10^−9 M, 24 hr, TPA induced
# Experimental: Treatment with 50 ng/mL of TPA was used as a positive control. […] (A) Five microliters of PCR product was separated on a 1.5% agarose gel electrophoresis. […] Cultured cells were washed with PBS, dissolved in 800 μL of RNAzolB (Biotex Laboratories, Inc., Houston, Tex.), mixed with 80 μL of chloroform and centrifuged. The colorless upper aqueous phase was mixed with an equal volume of isopropanol to precipitate RNA. RNA pellet was washed twice with 500 μL of 75% ethanol and, after drying, dissolved in 10 μL of TE buffer. After denaturing at 65° C. for 15 min, the RNA sample was treated with 0.5 U DNase (Gibco) in 0.5 ml of DNase buffer (20 mM Tris-HCl pH 8.3, 50 mM KCl, 2.5 mM MgCl2) at room temperature for 45 min. DNase was denatured by adding 0.5 ml of 0.5M EDTA and heating at 98° C. for 10 min. RNA aliquots of an equal amount (1 μg/20 μL) were reverse transcribed to single stranded cDNAs using 2.5 U/20 μL of avian myeloblastosis virus reverse transcriptase (Takara Biochemicals, Osaka, Japan) in 10 mM Tris-HCl (pH 8.3), 5 mM MgCl2, 50 mM KCl, 1 mM deoxy NTPs and 2.5 μM random hexamers. Two microliters of the diluted cDNA product was made up to 25 μl by mixing with 10 mM Tris-HCl (pH 8.3), 50 mM KCl, 4 mM MgCl2, 0.025 U/μL Taq DNA polymerase (Takara Biochemicals, Osaka, Japan), and 0.2 μM each of the upstream sense primer and downstream antisense primer. […] For human 18S ribosomal RNA, the sense primer ([…] NO: 6) and the antisense primer ([NT] ID NO: 7) were used as the internal control. PCR was carried out with an automatic heat controller (Perkin Elmer, Foster, Calif.). The PCR conditions were: initial denaturation, at 94° C. for 2 min; 30 cycles of denaturation at 94° C. for 1 min, annealing at 58° C. for 1 min and extension at 72° C. for 1 min; last extension at 72° C. for 1 min. As an internal control, PCR with primers for 18S rRNA was included in each reaction. […] For semi-quantitative analysis of mRNA, the kinetics of PCR was monitored. […] The intensity of the bands was measured by computer analysis using NIH software.
# hTGF-β1 promoter [2] = experiment: In vitro transcription reaction with HeLa nuclear extract; assay type: biochemical, human; conditions: HeLa nuclei extract, hTGF-β1 promoter template, 30° C., 60 min
# Experimental: One microgram of a plasmid was incubated in the transcription buffer with 8 U of HeLa nucleus extract, 3 kinds of non-labeled nucleotide triphosphates (UTP, CTP, GTP) at […] each, and 25 μM α-^32P-ATP at 30° C. for 60 min. The reaction was terminated by adding 175 μl of HeLa extract stop solution, and then phenol-chloroform-isoamyl alcohol extraction and ethanol precipitation were carried out. Samples were re-suspended in 98% […] loading dye and heated at 90° C. for 10 min before loading a 6%, 7 M urea-polyacrylamide gel. The gel was dried and visualized by autoradiography;
# as §1
# In vitro transcription reactions were carried out using nuclear extracts of Hela cells and the in vitro transcription system (Promega, Madison, Wis.). […]
# hTGF-β1 protein = experiment: Western blot analysis of hTGF-β1 protein in hVSMC; assay type: cell-based, human; conditions: 10^−9 M, 24 hr incubation
# Experimental: 10^−9 M of the polyamide was added to medium of cultured hVSMC and incubated for 24 hr. (A) The expression of hTGFβ1 protein was investigated by Western blot analysis.
# Test VSMC and control VSMC were incubated in 6-well plates for 24 hr, washed twice with PBS and incubated on ice in 300 μL of lysis buffer (50 mM Tris-HCl (pH 8.0), 150 mM NaCl, 1 mM EDTA, 1 mM phenylmethylsulfonyl fluoride, 1 μg/mL aprotinin, 1% Triton X-100) for 30 min. Cells were scraped into a 1.5 mL tube and centrifuged, and the supernatant was collected. The protein content of the supernatant was assayed by Bradford protein assay using BIO-RAD protein assay kit (Bio-Rad Lab, Hercules, Calif.). The supernatant contained 20 μg of total protein, which was denatured at 100° C. for 3 min in the loading buffer, electrophoresed on a 10% polyacrylamide gel and transferred to a nitrocellulose membrane. The membrane was incubated at room temperature for 1 hr with mouse monoclonal antibody with specificity to hTGF-β1 (1:500) (R&D systems, Minneapolis, Minn.), and then incubated at room temperature for 1 hr with anti-mouse HRP conjugated secondary antibody at 1:2000. After washing sufficiently, the membrane was incubated with an […] luminescence substrate (Amersham Life Service, Buckinghamshire, UK) and exposed to an X-ray film.
# [3] = system: double stranded oligonucleotide corresponding to the base pairs from −548 to −537 of hTGF-β1 promoter; experiment: Gel-shift assay: binding of polyamide to double stranded oligonucleotide; parameters: species or system human; conditions: binding buffer, 37° C., 15 min; 20% polyacrylamide gel, autoradiography
# Experimental: The double stranded DNA corresponding to the base pair sequence from −548 to −537 of the hTGF-β1 promoter (FIG. 1) was labeled by T4 polynucleotide using [γ-^32P]-ATP and incubated in a binding buffer at 37° C. for 15 min together with mismatch polyamide (lane 0) or with increasing amount of the polyamide (lane 1, 2 and 3 was 1 nM, 2 nM and 4 nM, respectively). The complexes thus obtained were electrophoresed on a 20% polyacrylamide gel and visualized by autoradiography.
# Oligonucleotides were synthesized, annealed, and 12 kinds of double stranded oligonucleotides were produced corresponding to the base pairs from −548 to −537 of hTGF-β1 promoter (FIG. 1A). The double stranded DNAs were labeled with [γ-^32P]-ATP using T4 polynucleotide kinase, and incubated in a binding buffer (40 mM Tris, pH 7.9, 250 mM NaCl, 25 mM EDTA, 25 mM DTT, 100 mM KCl) with the polyamides or mismatched polyamides at 37° C. for 15 min. The complexes thus obtained were electrophoresed by 20% polyacrylamide gel and visualized by autoradiography.
# Experimental for cultured hVSMC: FITC labeled polyamide was added directly to the culture medium at the concentration of 10^−9 M and observed under a fluorescent microscope.
# hVSMC was obtained from Clonetics (Walkersville, Md.). hVSMC was cultured in Dulbecco's modified Eagle's medium (DMEM) containing 10% calf serum (Gibco Life Technologies, Gaithersburg, Md.), 100 U/ml penicillin and 100 mg/ml streptomycin. Cells were passaged by trypsin treatment with 0.05% trypsin (Gibco) in Ca^2+-free and Mg^2+-free phosphate buffered saline (PBS) and cultured in 75-cm^2 tissue culture flasks. The medium was exchanged every four or five days, and experiments were carried out on cells during 5-10 passages.
# Passaged hVSMC was cultured at a density of 10^5/cm^2 for 24 hr in a 24-well flask. FITC-labeled polyamides were directly added to the medium at a concentration of 10^−9 M and observed every one hour under a florescent microscope.
Molecule,expression of luciferase driven by hTGF-β1 promoter (positive control) (hTGF-β1 promoter [1]; positive control),expression of hTGF-β1 mRNA (positive control) (hTGF-β1 mRNA; 50 ng/mL),detection of FITC in the nuclei of cultured hVSMC (cultured hVSMC),time FITC labeled polyamide remains in the nucleus of cultured hVSMC (cultured hVSMC),transcription in in vitro transcription system (hTGF-β1 promoter [2]),expression of luciferase driven by hTGF-β1 promoter (hTGF-β1 promoter [1]),expression of hTGF-β1 protein (hTGF-β1 protein),binding to the corresponding 12 base pairs double stranded oligonucleotide [3],expression of hTGF-β1 mRNA (hTGF-β1 mRNA)
CCCCCCCCCCCCCC(=O)O[C@@H]1[C@@H](C)[C@@]2(O)[C@@H](C=C(CO)C[C@]3(O)C(=O)C(C)=C[C@@H]23)[C@H]2C(C)(C)[C@]12OC(C)=O [TPA],stimulated the expression of luciferase protein,significantly stimulated the expression of hTGF-β1 mRNA,–,–,–,–,–,–,–
"CN(C)CCCNC(=O)CCNC(=O)c1cc(NC(=O)c2cc(NC(=O)CCNC(=O)c3cc(NC(=O)c4cc(NC(=O)c5cc(NC(=O)CCCNC(=O)c6cc(NC(=O)c7cc(NC(=O)c8nc(NC(=O)CCNC(=O)c9cc(NC(=O)c%10cc(NC(=O)c%11nc(NC(=O)CCNC(=S)Nc%12ccc%13c(c%12)C(=O)OC%13%12c%13ccc(O)cc%13Oc%13cc(O)ccc%13%12)cn%11C)cn%10C)cn9C)cn8C)cn7C)cn6C)cn5C)cn4C)cn3C)cn2C)cn1C [compound 4a, FITC-β-IPP-β-IPP-γ-PPP-β-PP-β Dp]",–,–,detected in the nuclei of cultured hVSMC at a high density,more than 48 hr,–,–,–,–,–
"CC(=O)Nc1cn(C)c(C(=O)Nc2cc(C(=O)Nc3cc(C(=O)NCCC(=O)Nc4cn(C)c(C(=O)Nc5cc(C(=O)Nc6cc(C(=O)NCCCC(=O)Nc7cc(C(=O)Nc8cc(C(=O)Nc9cc(C(=O)NCCC(=O)Nc%10cc(C(=O)Nc%11cc(C(=O)NCCC(=O)O)n(C)c%11)n(C)c%10)n(C)c9)n(C)c8)n(C)c7)n(C)c6)n(C)c5)n4)n(C)c3)n(C)c2)n1 [compound 4b, Ac-IPP-β-IPP-γ-PPP-β-PP-βCOOH]",–,–,–,–,reduce transcription,significantly downregulated the expression of luciferase,inhibited the expression of hTGF-β1 protein,able to bind,inhibited the expression of hTGF-β1 mRNA induced by TPA
Ac-PPP-β-IPP-γ-PPP-β-COOH [mismatch polyamide],–,–,–,–,did not show any significant effect,had no effect,–,failed to bind,did not
